Reference: patent EP1712550A2, “Substituted triazole diamine derivatives as kinase inhibitors” (priority 2000, dated 2002)

Tests used:
[1] = target: T1, EGFR (epidermal growth factor receptor) (Homo sapiens, UniProt P00533); experiment: Kinase Selectivity Assay EGF-R; type: biochemical; details: Kinase Selectivity, Table 2; read-out: EGF-R IC50
T1 construct: is purified from human A431 cell membranes (Sigma, St. Louis, MO, Cat.# E3641); purchased Sigma, St. Louis, MO E3641; host or cells: human A431 cell membranes (endogenous protein)

[2] = system: HeLa cervical adenocarcinoma; experiment: Inhibition of Cell Proliferation, 14C-thymidine incorporation, HeLa; type: cell-based; details: Homo sapiens; Cell Line HeLa
Description: (§1) The ability of a test compound to inhibit the proliferation of cell growth was determined by measuring incorporation of ^14C-labelled thymidine into newly synthesized DNA within the cells. This method was used on cell lines derived from carcinomas originating from several tissues such as HeLa cervical adenocarcinoma (American Type Culture Collection (ATCC), Virginia, Cat. #CCL-2), A375 malignant melanoma (ATCC CRL-1619), SK-OV-3 ovarian adenocarcinoma (ATCC HTB-77) HCT-116 colon carcinoma (CCL-247), PC-3 prostate adenocarcinoma (ATCC CRL-1435), and MDA-MB-231 (Xenogen Corp.) In this way the effect of a compound on cell growth of cells with many different phenotypes can be determined. Cells were trypsinized and counted and 3000-8000 cells were added to each well of a 96-well CytoStar tissue culture treated scintillating microplate (Amersham #RPNQ0160) in complete medium in a volume of 100 µl. Cells were incubated for 24 hours in complete medium at 37°C in an atmosphere containing 5% CO2. Next, 1 µl of test compound in 100% DMSO was added to the wells of the plate. DMSO only was added to control wells. Cells were incubated for 24 more hours in complete medium at 37°C in an atmosphere containing 5% CO2. Methyl^14C-thymidine 56 mCi/mmol (NEN #NEC568 or Amersham #CFA532) was diluted in complete medium and 0.2 uCi/well was added to each well of the CytoStar plate in a volume of 20 ul. The plate was incubated for 24 hours at 37°C plus 5% CO2 in drug plus ^14C-thymidine. The contents of the plate were discarded into a ^14C radioactive waste container by inverting the plate and the plate was washed twice with 200 µl PBS. 200 µl of PBS is added to each well. The top of the plate was sealed with a transparent plate sealer and a white plate backing sealer (Packard #6005199) was applied to the bottom of the plate. The degree of methyl ^14C-thymidine incorporation was quantified on a Packard Top Count.

[3] = system: HCT-116 colon carcinoma; experiment: Inhibition of Cell Proliferation, 14C-thymidine incorporation, HCT-116; type: cell-based; details: Homo sapiens; Cell Line HCT-116
Description: as §1

[4] = system: PC-3 prostate adenocarcinoma; experiment: Inhibition of Cell Proliferation, 14C-thymidine incorporation, PC-3; type: cell-based; details: Cell Line PC-3
Description: as §1

[5] = system: MDA-MB-231; experiment: Inhibition of Cell Proliferation, 14C-thymidine incorporation, MDA-MB-231; type: cell-based; details: Homo sapiens; Cell Line MDA-MB-231
Description: The ability of a test compound to inhibit the proliferation of cell growth was determined by measuring incorporation of ^14C-labelled thymidine into newly synthesized DNA within the cells. […] Cells were trypsinized and counted and 3000-8000 cells were added to each well of a 96-well CytoStar tissue culture treated scintillating microplate (Amersham #RPNQ0160) in complete medium in a volume of 100 µl. Cells were incubated for 24 hours in complete medium at 37°C in an atmosphere containing 5% CO2. Next, 1 µl of test compound in 100% DMSO was added to the wells of the plate. DMSO only was added to control wells. Cells were incubated for 24 more hours in complete medium at 37°C in an atmosphere containing 5% CO2. […] The plate was incubated for 24 hours at 37°C plus 5% CO2 in drug plus ^14C-thymidine. The contents of the plate were discarded into a ^14C radioactive waste container by inverting the plate and the plate was washed twice with 200 µl PBS. 200 µl of PBS is added to each well. […] The degree of methyl ^14C-thymidine incorporation was quantified on a Packard Top Count.

T1 sequence (P00533 25-1210): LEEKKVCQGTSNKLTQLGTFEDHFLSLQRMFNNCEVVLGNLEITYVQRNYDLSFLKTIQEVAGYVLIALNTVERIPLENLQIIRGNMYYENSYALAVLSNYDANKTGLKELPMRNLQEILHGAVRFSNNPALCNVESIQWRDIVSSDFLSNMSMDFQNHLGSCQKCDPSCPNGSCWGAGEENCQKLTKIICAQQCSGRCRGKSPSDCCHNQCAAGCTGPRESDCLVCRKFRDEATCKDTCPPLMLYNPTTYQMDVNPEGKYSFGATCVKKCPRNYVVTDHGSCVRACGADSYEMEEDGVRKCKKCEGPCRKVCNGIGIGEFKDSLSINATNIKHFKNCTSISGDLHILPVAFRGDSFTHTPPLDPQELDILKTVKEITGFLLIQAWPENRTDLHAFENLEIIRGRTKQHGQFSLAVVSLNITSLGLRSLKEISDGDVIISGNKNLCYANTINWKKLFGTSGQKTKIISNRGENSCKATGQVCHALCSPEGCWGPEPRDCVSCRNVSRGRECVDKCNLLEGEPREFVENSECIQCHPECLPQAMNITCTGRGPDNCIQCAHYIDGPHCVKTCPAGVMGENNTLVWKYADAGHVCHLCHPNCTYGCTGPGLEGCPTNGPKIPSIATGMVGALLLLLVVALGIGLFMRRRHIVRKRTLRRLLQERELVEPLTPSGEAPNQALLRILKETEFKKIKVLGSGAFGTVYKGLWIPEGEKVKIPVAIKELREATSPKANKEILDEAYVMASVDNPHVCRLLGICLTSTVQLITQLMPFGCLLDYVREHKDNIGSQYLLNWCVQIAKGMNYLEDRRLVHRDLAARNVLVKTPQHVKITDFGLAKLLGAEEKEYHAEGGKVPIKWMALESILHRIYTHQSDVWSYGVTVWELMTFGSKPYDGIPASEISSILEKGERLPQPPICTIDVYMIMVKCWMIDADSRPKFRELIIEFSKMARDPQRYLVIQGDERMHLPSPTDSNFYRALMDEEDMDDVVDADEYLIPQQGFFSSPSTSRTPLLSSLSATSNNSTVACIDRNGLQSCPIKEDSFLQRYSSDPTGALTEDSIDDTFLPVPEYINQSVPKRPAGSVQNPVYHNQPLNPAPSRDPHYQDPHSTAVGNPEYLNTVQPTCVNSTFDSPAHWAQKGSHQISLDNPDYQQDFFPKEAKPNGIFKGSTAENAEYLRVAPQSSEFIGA

**Q.** Which results are given for Cc1cc(C)c(C(=O)n2nc(Nc3ccc(S(N)(=O)=O)cc3)nc2N)s1 [Cpd 33, 4-[[5-amino-1-[(3,5-dimethyl-2-thienyl)carbonyl]-1H-1,2,4-triazol-3-yl]amino]-benzenesulfonamide]?
**A.** IC50 [1]: > 100 µM; IC50 [2]: 72 nM; IC50 [3]: 27 nM; IC50 [4]: 37 nM; IC50 [5]: 171 nM
